Results published in article PMC9119168 (Antiviral Research, 2022).

What was measured:
MERS-CoV Mac1 = MERS-CoV Mac1 (Middle East respiratory syndrome-related coronavirus, UniProt K9N7C7); assay type: binding; conditions: read-out: IC50 AS MERS
SARS-CoV Mac1 = SARS-CoV Mac1 (Severe acute respiratory syndrome coronavirus, UniProt P0C6X7); assay type: binding; conditions: read-out: AS assay IC50 SARS-CoV
SARS-CoV-2 Mac1 [1] = biological target: T1, SARS-CoV-2 Mac1 (Severe acute respiratory syndrome coronavirus 2, UniProt P0DTD1); assay: Differential scanning fluorimetry; assay type: binding
SARS-CoV-2 Mac1 [2] = biological target: T1, SARS-CoV-2 Mac1; conditions: read-out: IC50 Mac1 mono-ARH activity; ref Dasovich et al., 2022; cited from earlier work
mammalian cells = conditions: cited from earlier work
Mac1 = conditions: ref Ni et al., 2021; cited from earlier work

MERS-CoV Mac1, sequence (K9N7C7 1110-1276 limits assumed): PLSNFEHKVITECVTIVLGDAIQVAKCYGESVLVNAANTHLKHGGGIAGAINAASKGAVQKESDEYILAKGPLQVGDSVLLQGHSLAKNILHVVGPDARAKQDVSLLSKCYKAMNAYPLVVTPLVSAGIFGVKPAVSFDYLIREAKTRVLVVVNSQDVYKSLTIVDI

Molecule `Nc1ncnc2c1ncn2[C@@H]1O[C@H](COP(=O)(O)OP(=O)(O)OC[C@H]2OC(O)[C@H](O)[C@@H]2O)[C@@H](O)[C@H]1O` (stereo partly drawn) [ADP-ribose] has an IC50 (MERS-CoV Mac1) of 1.25 ± 0.23 µM and an IC50 (SARS-CoV Mac1) of 0.24 µM.

For `Nc1ncnc2c1ncn2[C@@H]1O[C@H](COP(=O)(O)OP(=O)(O)OP(=O)(O)O)[C@@H](O)[C@H]1O` [ATP], the “thermal shift of Mac1 in DSF (in words)” value (SARS-CoV-2 Mac1 [1]) was “no effect”.

In the case of `Cc1nc(Nc2ncc(C(=O)Nc3c(C)cccc3Cl)s2)cc(N2CCN(CCO)CC2)n1` [Dasatinib], the IC50 (SARS-CoV-2 Mac1 [2]) is listed as ~50 µM and the “toxicity to mammalian cells (in words)” value (mammalian cells) is listed as “toxic to mammalian cells”.

In the case of `N#C[C@@]1(c2ccc3c(N)ncnn23)O[C@H](CO)[C@@H](O)[C@H]1O` [GS-441524], the “binding to Mac1 (in words)” value (Mac1) is given as “bound to Mac1”.
